Assay results as given in publication doi:10.1101/717207v1 (bioRxiv, 2019).

Key:
[1] = Peptide binding to POPG LUVs studied by ITC; details: POPG LUVs into peptide, PBS, one site model, once or twice
[2] = Peptide binding to heparin studied by ITC; details: heparin into peptide, PBS, one site model, average of two experiments
[3] = Peptide secondary structure by ATR-FTIR in the absence or presence of heparin; assay type: physicochemical; details: for Percentage of structural elements: β-strand: ATR-FTIR amide I deconvolution, 1627 cm^-1; for Percentage of structural elements: Random coil / Percentage of structural elements: α-Helix / Percentage of structural elements: Turn: ATR-FTIR; for Percentage of structural elements: Random coil: 1643 cm^-1; for Percentage of structural elements: α-Helix: 1659 cm^-1; for Percentage of structural elements: Turn: 1679 cm^-1
[4] = Perturbation of DMPG membrane organization probed by DSC; assay type: physicochemical; details: DMPG MLVs 1 mg/mL in PBS, peptide-to-lipid ratio 1/50, 1°C/min, 0-50°C
[5] = +Hep (8.3 µM heparin, peptide per ITC stoichiometry)

Sequence	TΔS [1]	ΔH [1]	TΔS [2]	ΔH [2]	Percentage of structural elements: β-strand ([3]; peptide alone, 100 µM in PBS)	Percentage of structural elements: Random coil [3, 5]	Percentage of structural elements: Random coil ([3]; peptide alone, 100 µM in PBS)	Percentage of structural elements: α-Helix [3, 5]	Percentage of structural elements: α-Helix ([3]; peptide alone, 100 µM in PBS)	Percentage of structural elements: Turn [3, 5]	Percentage of structural elements: Turn ([3]; peptide alone, 100 µM in PBS)	effect on DMPG bilayer organization (phase transitions) [4]
RWRWRRRRR [nR7W2]	6.7 kcal/mol	-0.81 kcal/mol	-82.9 kcal/mol	-93.5 kcal/mol	–	–	–	–	–	–	–	–
RRRRRRRRR [Peptide R9]	7.4 kcal/mol	-0.60 kcal/mol	-60.5 kcal/mol	-71.7 kcal/mol	–	–	–	–	–	–	–	–
RRRRWRRRR [Peptide R8W1-1]	6.2 kcal/mol	-0.72 kcal/mol	-71.5 kcal/mol	-81.7 kcal/mol	–	–	–	–	–	–	–	–
RRRWRRWRR [aR7W2]	6.2 kcal/mol	-0.84 kcal/mol	-86.3 kcal/mol	-96.8 kcal/mol	22%	20%	18%	26%	25%	37%	35%	–
RRWRRRRWW [nR6W3]	6.5 kcal/mol	-1.27 kcal/mol	-113.0 kcal/mol	-123.3 kcal/mol	21%	24%	23%	27%	25%	22%	31%	–
RRWWRRWRR [aR6W3]	5.7 kcal/mol	-1.39 kcal/mol	-105.6 kcal/mol	-116.4 kcal/mol	13%	24%	17%	28%	30%	40%	40%	–
RWWWWRRRR [nR5W4]	5.7 kcal/mol	-2.10 kcal/mol	-169.0 kcal/mol	-179.3 kcal/mol	17%	22%	22%	26%	26%	32%	35%	–
RRDWDWRRDWRR [Peptide R6DW3]	6.2 kcal/mol	-0.74 kcal/mol	-80.5 kcal/mol	-91.1 kcal/mol	–	–	–	–	–	–	–	almost identical to that of aR6W3
RRWWRRWWR [aR5W4]	5.0 kcal/mol	-2.53 kcal/mol	-165.9 kcal/mol	-176.6 kcal/mol	11%	20%	24%	30%	29%	30%	36%	–
RRRRRRRRW [Peptide R8W1-2]	6.7 kcal/mol	-0.79 kcal/mol	-82.0 kcal/mol	-92.3 kcal/mol	–	–	–	–	–	–	–	–
